Reference: US7998903B2, “Glycerol-modified silicone spreading agent and a composition comprising the same” (Shin-Etsu Chemical Co., Ltd., priority 2004, dated 2011)

How the values were obtained:
[1] = Surface tension of silicone/oil agent mixtures, automatic tensiometer, 25 degrees C.; format: physicochemical; details: for Surface Tension, glycerol-modified silicone/oil agent = 10/90, Liquid paraffin / Surface Tension, glycerol-modified silicone/oil agent = 10/90, Rapeseed oil / Surface Tension, glycerol-modified silicone/oil agent = 10/90, Soybean oil: 25 C.; for Surface Tension, glycerol-modified silicone/oil agent = 10/90, Liquid paraffin: silicone/liquid paraffin = 10/90, neat liquid paraffin 27.9; for Surface Tension, glycerol-modified silicone/oil agent = 10/90, Rapeseed oil: silicone/rapeseed oil = 10/90, neat rapeseed oil 31; for Surface Tension, glycerol-modified silicone/oil agent = 10/90, Soybean oil: silicone/soybean oil = 10/90, neat soybean oil 31.8; for Surface tension, amount added 1 wt % / Surface tension, amount added 5 wt % / Surface tension, amount added 10 wt % / Surface tension, amount added 15 wt %: Table 5, oil agent not named; for Surface tension, amount added 1 wt %: 1 wt % silicone; for Surface tension, amount added 5 wt %: 5 wt % silicone; for Surface tension, amount added 10 wt %: 10 wt % silicone; for Surface tension, amount added 15 wt %: 15 wt % silicone
Method: (§1) The present invention will be explained in detail with reference to the following Examples, but not limited to them. In the Examples, surface tension was measured with a full automatic tensiometer, model PD-W, ex Kyowa Interface Science Co. Ltd., at 25 degrees C. according to the water drop method in which a contact angle with the air is measured. A surface tension of dimethylpolysiloxane having a viscosity of 30 mm^2/s at 25 degrees C. measured according to this method was 18.2 mN/m. In the tables shown below, “D” and “I” each represents a degree of solubility: “D” means “dispersed” and “I” means “insoluble.” A silicone with no mark means that it dissolved to form a transparent solution.
(§2) Some properties and solubility in oil agents were determined with each of the glycerol-modified silicone prepared in Examples 1 to 5. Surface tension of the mixtures of the silicone and the oil agent were measured, too.
Silicones modified with compounds other than glycerol were prepared. Mixtures with the oil agents were prepared and surface tension thereof was measured as in Examples.
Compositions were prepared containing an oil agent and the glycerol-modified silicone in a weight ratio of 90/10 and surface tension thereof was measured.
Silicones without having a glycerol residue and silicones having a structure other than, A-B-A, were prepared and subjected to the measurements as in Examples. Mixtures with the oil agents were prepared each of which surface tension was measured as in Examples.

[2] = test system: leaf of Citrus Natsudaidai; test: Spreading of one drop of liquid paraffin containing silicone on a leaf (FIGS. 1 & 2); details: 15 μl drop of liquid paraffin containing 10 wt % silicone; 5 minutes after placing
Method: FIGS. 1 & 2 are photographs each taken 5 minutes after one drop, i.e., 15 μl, of liquid paraffin containing 10 wt % of the silicone of Example 2 and Comparative Example 6, respectively, was placed on a leaf of Citrus Natsudaidai. […] Comparing the figures, the liquid paraffin containing the glycerol-modified silicone in Example 2 has better spreading property than the silicone modified with n-octene.

[3] = Degree of solubility (miscibility) of the silicone in oil agents; format: physicochemical; design: key: “D” means “dispersed”; “I” means “insoluble.”; A silicone with no mark means that it dissolved to form a transparent solution
Method: as §1, §2

Row | Surface Tension, glycerol-modified silicone/oil agent = 10/90, Liquid paraffin [1] | Surface Tension, glycerol-modified silicone/oil agent = 10/90, Rapeseed oil [1] | Surface Tension, glycerol-modified silicone/oil agent = 10/90, Soybean oil [1] | Surface tension, amount added 1 wt % [1] | Surface tension, amount added 5 wt % [1] | Surface tension, amount added 10 wt % [1] | Surface tension, amount added 15 wt % [1] | Structure (SMILES) | further results
1 | 25.5 mN/m | 24.5 mN/m | 24.9 mN/m | 27.4 mN/m | 25.3 mN/m | 25.5 mN/m | 24.4 mN/m | CCCCCCCC[Si](C)(O[Si](C)(C)C)O[Si](C)(C)C [Comparative Example 6] | spreading of a drop on a leaf [2]: remained as a small circle
2 | 23.7 mN/m | 24.9 mN/m | 24.3 mN/m | 27 mN/m | 24.4 mN/m | 23.7 mN/m | 23.7 mN/m | CC(CCO)C[Si](C)(O[Si](C)(C)C)O[Si](C)(C)C (stereo not shown) [compound 11] | –
3 | 25.4 mN/m | – | – | 26.6 mN/m | 25 mN/m | 25.4 mN/m | 22.7 mN/m | C[Si](C)(C)O[Si](C)(CCCCCO)O[Si](C)(C)C [compound 10] | –

More lines, now with the values behind:

Row | Structure (SMILES) | Surface Tension, glycerol-modified silicone/oil agent = 10/90, Liquid paraffin [1] | Surface Tension, glycerol-modified silicone/oil agent = 10/90, Rapeseed oil [1] | Surface Tension, glycerol-modified silicone/oil agent = 10/90, Soybean oil [1] | Surface tension, amount added 1 wt % [1] | Surface tension, amount added 5 wt % [1] | Surface tension, amount added 10 wt % [1] | Surface tension, amount added 15 wt % [1] | further results
4 | C[Si](C)(C)O[Si](C)(C)CCCOCC(O)CO (stereo not shown) [Example 1] | 21.3 mN/m | 22.6 mN/m | 21.9 mN/m | – | – | – | – | –
5 | CCCCCCCCCCCC[Si](C)(O[Si](C)(C)C)O[Si](C)(C)C [compound 7] | 26.3 mN/m | – | – | – | – | – | – | –
6 | CCC(CO)(CO)COCCC[Si](C)(C)O[Si](C)(C)C [compound 14] | 23 mN/m | 26.9 mN/m | 27.5 mN/m | – | – | – | – | –
7 | CCCCCCCC[Si](C)(C)O[Si](C)(C)O[Si](C)(C)C [compound 8] | 25 mN/m | – | – | – | – | – | – | –
8 | C[Si](C)(CCCOCC(O)CO)O[Si](C)(C)CCCOCC(O)CO (stereo not shown) [Comparative Example 1] | – | – | – | – | – | – | – | Miscibility, glycerol-modified silicone/oil agent = 10/90, Liquid paraffin ([3]; silicone/liquid paraffin = 10/90): (I); Miscibility, glycerol-modified silicone/oil agent = 10/90, Rapeseed oil ([3]; silicone/rapeseed oil = 10/90): (I); Miscibility, glycerol-modified silicone/oil agent = 10/90, Soybean oil ([3]; silicone/soybean oil = 10/90): (I)
9 | CCC(CO)(CO)COCCC[Si](C)(O[Si](C)(C)C)O[Si](C)(C)C [compound 15] | 22.1 mN/m | 25.3 mN/m | 26 mN/m | – | – | – | – | –
